pKi: −log10 of the molar value.
What was measured:
FKBP51 = target: T1, FKBP51 (Homo sapiens, UniProt Q13451); experiment: Fluorescence polarization (FP) assay, binding to the FK506-binding domain of FKBP51; settings: FK506-binding domain of FKBP51 (FKBP51FK1), competition with fluorescent ligand 2b
T1 sequence (Q13451 42-130 limits assumed): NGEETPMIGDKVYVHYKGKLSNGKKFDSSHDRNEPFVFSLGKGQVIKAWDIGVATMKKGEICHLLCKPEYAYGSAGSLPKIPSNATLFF
Procedure, shortened: (§1)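 Competitive FP with fluorescent ligand 2b at 20 nM (2× concentration) and FK1 domain at 280 nM (FKBP51) or 400 nM (FKBP52) in 20 mM HEPES pH 8, 0.01% Triton-X100. Anisotropy read after 30 min at room temperature (ex 485, em 535 nm), in duplicate; IC50 by four-parameter fit, Ki via Wang competitive equation.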

FKBP52 = target: T2, FKBP52 (Homo sapiens, UniProt Q02790); experiment: Fluorescence polarization (FP) assay, binding to the FK506-binding domain of FKBP52; settings: FK506-binding domain of FKBP52 (FKBP52FK1), competition with fluorescent ligand 2b
T2 sequence (Q02790 50-138 limits assumed): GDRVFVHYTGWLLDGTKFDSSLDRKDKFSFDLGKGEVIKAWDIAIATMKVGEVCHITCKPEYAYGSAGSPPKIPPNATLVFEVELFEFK
Procedure, shortened: as §1

pKi (FKBP51) | pKi (FKBP52) | SMILES
6.30 to 7.00 | 6.30 to 7.00 | C=C[C@@H]1CN(Cc2ccncn2)C(=O)[C@@H]2CCC[C@H]1N2S(=O)(=O)c1cc(Cl)cc(Cl)c1 [Compound J15, (1S,5R,6R)-10-((3,5-dichlorophenyl)sulfonyl)-3-(pyrimidin-4-ylmethyl)-5-vinyl-3,10-diazabicyclo[4.3.1]decan-2-one]
≥ 7.00 | ≥ 7.00 | C=C[C@@H]1CN(Cc2ccccn2)C(=O)[C@@H]2CCC[C@H]1N2S(=O)(=O)c1ccc2[nH]c(=O)sc2c1 [Compound K4, 6-(((1S,5R,6R)-2-oxo-3-(pyridin-2-ylmethyl)-5-vinyl-3,10-diazabicyclo[4.3.1]decan-10-yl)sulfonyl)benzo[d]thiazol-2(3H)-one]
6.30 to 7.00 | 6.30 to 7.00 | C=C[C@@H]1CN(Cc2ccccn2)C(=O)[C@@H]2CCC[C@H]1N2S(=O)(=O)c1cccc(C#N)c1 [Compound K7, 3-(((1S,5R,6R)-2-oxo-3-(pyridin-2-ylmethyl)-5-vinyl-3,10-diazabicyclo[4.3.1]decan-10-yl)sulfonyl)benzonitrile]
6.30 to 7.00 | 6.30 to 7.00 | C=C[C@@H]1CN(Cc2ccccn2)C(=O)[C@@H]2CCC[C@H]1N2S(=O)(=O)c1cc(Cl)c(O)c(Cl)c1 [Compound K8, (1S,5R,6R)-10-((3,5-dichloro-4-hydroxyphenyl)sulfonyl)-3-(pyridin-2-ylmethyl)-5-vinyl-3,10-diazabicyclo[4.3.1]decan-2-one]
6.30 to 7.00 | 6.30 to 7.00 | C=C[C@@H]1CN(Cc2ccccn2)C(=O)[C@@H]2CCC[C@H]1N2S(=O)(=O)c1cc(Br)cc(C(N)=O)c1 [Compound K18, 3-bromo-5-(((1S,5R,6R)-2-oxo-3-(pyridin-2-ylmethyl)-5-vinyl-3,10-diazabicyclo[4.3.1]decan-10-yl)sulfonyl)benzamide]
6.30 to 7.00 | 6.30 to 7.00 | C=C[C@@H]1CN(Cc2ccccn2)C(=O)[C@@H]2CCC[C@H]1N2S(=O)(=O)c1cc(Cl)cc(C(N)=O)c1 [Compound K19, 3-chloro-5-(((1S,5R,6R)-2-oxo-3-(pyridin-2-ylmethyl)-5-vinyl-3,10-diazabicyclo[4.3.1]decan-10-yl)sulfonyl)benzamide]
≥ 7.00 | ≥ 7.00 | C=C[C@@H]1CN(Cc2ccccn2)C(=O)[C@@H]2CCC[C@H]1N2S(=O)(=O)c1cc(Cl)c(NC(C)=O)c(Cl)c1 [Compound K22, N-(2,6-dichloro-4-(((1S,5R,6R)-2-oxo-3-(pyridin-2-ylmethyl)-5-vinyl-3,10-diazabicyclo[4.3.1]decan-10-yl)sulfonyl)phenyl)acetamide]

SMILES | pKi (FKBP51) | pKi (FKBP52)
COCCCCN1C[C@@H](CO)[C@H]2CCC[C@@H](C1=O)N2S(=O)(=O)c1cc(Cl)cc(Cl)c1 [Compound J7, (1S,5R,6R)-10-((3,5-dichlorophenyl)sulfonyl)-5-(hydroxymethyl)-3-(4-methoxybutyl)-3,10-diazabicyclo[4.3.1]decan-2-one] | 6.00 to 6.30 | 6.00 to 6.30
O=C1[C@@H]2CCC[C@H]([C@H](CO)CN1Cc1ccccn1)N2S(=O)(=O)c1cc(Cl)cc(Cl)c1 [Compound J8, (1S,5R,6R)-10-((3,5-dichlorophenyl)sulfonyl)-5-(hydroxymethyl)-3-(pyridin-2-ylmethyl)-3,10-diazabicyclo[4.3.1]decan-2-one] | ≥ 7.00 | ≥ 7.00
C=C[C@@H]1CN(CC(=O)OCC)C(=O)[C@@H]2CCC[C@H]1N2S(=O)(=O)c1cc(Cl)cc(Cl)c1 [Compound J9, ethyl 2-((1S,5R,6R)-10-((3,5-dichlorophenyl)sulfonyl)-2-oxo-5-vinyl-3,10-diazabicyclo[4.3.1]decan-3-yl)acetate] | 6.30 to 7.00 | 6.30 to 7.00
C=C[C@@H]1CN(Cc2ccco2)C(=O)[C@@H]2CCC[C@H]1N2S(=O)(=O)c1cc(Cl)cc(Cl)c1 [Compound J17, (1S,5R,6R)-10-((3,5-dichlorophenyl)sulfonyl)-3-(furan-2-ylmethyl)-5-vinyl-3,10-diazabicyclo[4.3.1]decan-2-one] | 5.30 to 6.00 | 5.30 to 6.00

From patent US9914732B2, “Diazabicyclo[4.3.1]decane derivatives for treatment of psychiatric disorders” (Max-Planck-Gesellschaft zur Forderung der Wissenschaften …, priority 2014, dated 2018)
